# Legend:
# 1a-H77 replicon cells = experiment: HCV 1a replicon inhibitory activity (Renilla luciferase); format: cell-based, hepatitis C virus; conditions: Hepatitis C virus; geometric mean, 95% confidence intervals in parentheses; 48 hours; medium with 10% FCS; read-out: IC50 value (95% Confidence Intervals) pM Replicon 1A assay
# Description: (§1) Test compounds were solubilised to 4 mM in 100% DMSO. Dilutions were made to the desired starting concentration in 100% DMSO and then 1 in 3 dilutions made, again in 100% DMSO. 0.5 μl of each sample was added to 384-well assay plates. White Lumitrac (Greiner) plates were used for the 1a and 1b replicon assays and black, clear bottomed (Greiner) plates were used for the WST-1 cytotoxity assay.
# 1a-H77 replicon cells (licensed from Apath LLC) were resuspended to a concentration of 1.4×10^5 cells/ml by addition of pre-warmed assay medium (Dulbecco's Modified Eagle's Medium (DMEM)+10% fetal calf serum (FCS)). 50 μl of this suspension was added to each well of a 384-well assay plate (Lumitrac, Greiner), already containing 0.5 μl of test compound.
# All plates were covered with gas permeable seals and incubated at 37° C., 5% CO2 for 48 hours. After 48 hours, the assay plate was removed from the incubator and left to cool to room temperature for 15 to 30 mins. Medium was removed from the wells and 5 μl 1× lysis buffer (from Promega's Renilla Luciferase assay kit, E2820) was added to each well. The plate was incubated at room temperature for 15 mins then 15 μl 1×Assay Substrate (from the same kit) was added to each well. Luminescence was read immediately using an EnVision (Perkin Elmer) plate reader. The half maximal effective concentration (1050) values were calculated by constructing log concentration-response curves for each compound.
# 1b (con1) replicon cells = experiment: HCV 1b replicon inhibitory activity (luciferase, Britelite Plus); format: cell-based, hepatitis C virus; conditions: Hepatitis C virus; geometric mean, 95% confidence intervals in parentheses; 48 hours; medium with 10% FCS; read-out: IC50 value (95% Confidence Intervals) pM Replicon 1B assay
# Description: as §1
# 1b (con1) replicon cells (pFK1389lucubineo/NS3-3′/ET/9B, licensed from Ralf Bartenschlager, University of Heidelberg) were resuspended to a concentration of 1.4×10^5 cells/ml by addition of pre-warmed medium (DMEM+10% FCS). 50 μl of this suspension was added to each well of a 384-well assay plate (Lumitrac, Greiner) already containing 0.5 μl of test compound.
# All plates were covered with gas permeable seals and incubated at 37° C., 5% CO2 for 48 hours. After 48 hours, the plate was removed from the incubator and left to cool to room temperature for 15-30 mins. 35 ul of reconstituted Lyophilised Britelite Plus Substrate (PerkinElmer, 6016767) to medium was added to each well. Luminescence was read after 1 min but before 15 mins on an EnVision (Perkin Elmer) plate reader. The half maximal effective concentration (1050) values were calculated by constructing log concentration-response curves for each compound.
Compound,IC50 (1a-H77 replicon cells) [pM],IC50 (1b (con1) replicon cells) [pM]
"COC(=O)N[C@H](C(=O)N1CCC[C@H]1c1ncc(-c2ccc(-c3cnc4cc(-c5cnc([C@@H]6CCCN6C(=O)[C@@H](NC(=O)OC)C(C)C)[nH]5)ccc4n3)cc2)[nH]1)C(C)C [Example 4, Methyl {(2S)-1-[(2S)-2-{5-[4-(6-{2-[(2S)-1-{(2S)-2-[(methoxycarbonyl)amino]-3-methylbutanoyl}pyrrolidin-2-yl]-1H-imidazol-5-yl}quinoxalin-2-yl)phenyl]-1H-imidazol-2-yl}pyrrolidin-1-yl]-3-methyl-1-oxobutan-2-yl}carbamate]",17.4,7.7
"COC(=O)N[C@H](C(=O)N1CCC[C@H]1c1ncc(-c2ccc(-c3ccc4nc(-c5cnc([C@@H]6CCCN6C(=O)[C@@H](NC(=O)OC)C(C)C)[nH]5)cnc4c3)cc2)[nH]1)C(C)C [Example 5, Methyl {(2S)-1-[(2S)-2-{5-[4-(2-{2-[(2S)-1-{(2S)-2-[(methoxycarbonyl)amino]-3-methyl-butanoyl}pyrrolidin-2-yl]-1H-imidazol-5-yl}quinoxalin-6-yl)phenyl]-1H-imidazol-2-yl}pyrrolidin-1-yl]-3-methyl-1-oxobutan-2-yl}carbamate]",387,8.12
"COC(=O)N[C@H](C(=O)N1CCC[C@H]1c1nc(-c2ccc(-c3ccc4cc(-c5cnc([C@@H]6CCCN6C(=O)[C@@H](NC(=O)OC)C(C)C)[nH]5)ccc4c3)nc2)c[nH]1)C(C)C [Example 6, Methyl {(2S)-1-[(2S)-2-{5-[6-(5-{2-[(2S)-1-{(2S)-2-[(methoxycarbonyl)amino]-3-methyl-butanoyl}pyrrolidin-2-yl]-1H-imidazol-4-yl}pyridin-2-yl)naphthalen-2-yl]-1H-imidazol-2-yl}pyrrolidin-1-yl]-3-methyl-1-oxobutan-2-yl}carbamate]",56.4,3.51
"COC(=O)N[C@H](C(=O)N1CCC[C@H]1c1ncc(-c2cnc(-c3ccc4cc(-c5cnc([C@@H]6CCCN6C(=O)[C@@H](NC(=O)OC)C(C)C)[nH]5)ccc4c3)nc2)[nH]1)C(C)C [Example 7, Methyl {(2S)-1-[(2S)-2-{5-[6-(5-{2-[(2S)-1-{(2S)-2-[(methoxycarbonyl)amino]-3-methyl-butanoyl}pyrrolidin-2-yl]-1H-imidazol-5-yl}pyrimidin-2-yl)naphthalen-2-yl]1H-imidazol-2-yl}pyrrolidin-1-yl]-3-methyl-1-oxobutan-2-yl}carbamate]",68.4,21.4
"COC(=O)N[C@H](C(=O)N1CCC[C@H]1c1ncc(-c2ccc(-c3ccc4cc(-c5cnc([C@@H]6CCCN6C(=O)[C@@H](NC(=O)OC)C(C)C)[nH]5)ncc4c3)cc2)[nH]1)C(C)C [Example 8, Methyl {(2S)-1-[(2S)-2-{5-[4-(3-{2-[(2S)-1-{(2S)-2-[(methoxycarbonyl)amino]-3-methyl-butanoyl}pyrrolidin-2-yl]-1H-imidazol-5-yl}isoquinolin-7-yl)phenyl]-1H-imidazol-2-yl}pyrrolidin-1-yl]-3-methyl-1-oxobutan-2-yl}carbamate]",91.2,20.5
"COC(=O)N[C@H](C(=O)N1CCC[C@H]1c1ncc(-c2ccc(-c3cnc4cc(-c5cnc([C@@H]6CCCN6C(=O)[C@@H](NC(=O)OC)C(C)C)[nH]5)ccc4n3)nc2)[nH]1)C(C)C [Example 9, Methyl {(2S)-1-[(2S)-2-{5-[6-(6-{2-[(2S)-1-{(2S)-2-[(methoxycarbonyl)amino]-3-methyl-butanoyl}pyrrolidin-2-yl]-1H-imidazol-5-yl}quinoxalin-2-yl)pyridin-3-yl]-1H-imidazol-2-yl}pyrrolidin-1-yl]-3-methyl-1-oxobutan-2-yl}carbamate]",42.9,12.7
"COC(=O)N[C@H](C(=O)N1CCC[C@H]1c1nc(-c2ccc(-c3cc4ccc(-c5cnc([C@@H]6CCCN6C(=O)[C@@H](NC(=O)OC)C(C)C)[nH]5)cc4cn3)nc2)c[nH]1)C(C)C [Example 11, Methyl {(2S)-1-[(2S)-2-{4-[6-(7-{2-[(2S)-1-{(2S)-2-[(methoxycarbonyl)amino]-3-methyl-butanoyl}pyrrolidin-2-yl]-1H-imidazol-5-yl}isoquinolin-3-yl)pyridin-3-yl]-1H-imidazol-2-yl}pyrrolidin-1-yl]-3-methyl-1-oxobutan-2-yl}carbamate]",42.1,20.8
"COC(=O)N[C@H](C(=O)N1CCC[C@H]1c1nc(-c2ccc3cc(-c4ccc(-c5cnc([C@@H]6CCCN6C(=O)[C@@H](NC(=O)OC)C(C)C)[nH]5)cc4)ccc3n2)c[nH]1)C(C)C [Example 13, Methyl {(2S)-1-[(2S)-2-{5-[4-(2-{2-[(2S)-1-{(2S)-2-[(methoxycarbonyl)amino]-3-methyl-butanoyl}pyrrolidin-2-yl]-1H-imidazol-4-yl}quinolin-6-yl)phenyl]-1H-imidazol-2-yl}pyrrolidin-1-yl]-3-methyl-1-oxobutan-2-yl}carbamate]",78.1,12
"COC(=O)N[C@H](C(=O)N1CCC[C@H]1c1ncc(-c2ccc(-c3cnc4cc(-c5cnc([C@@H]6CCCN6C(=O)[C@@H](NC(=O)OC)C(C)C)[nH]5)cnc4n3)cc2)[nH]1)C(C)C [Example 14, Methyl {(2S)-1-[(2S)-2-{5-[3-(4-{2-[(2S)-1-{(2S)-2-[(methoxycarbonyl)amino]-3-methyl-butanoyl}pyrrolidin-2-yl]-1H-imidazol-5-yl}phenyl)pyrido[2,3-b]pyrazin-7-yl]-1H-imidazol-2-yl}pyrrolidin-1-yl]-3-methyl-1-oxobutan-2-yl}carbamate]",882,189
"COC(=O)N[C@H](C(=O)N1CCC[C@H]1c1ncc(-c2ccc(-c3nc(O)c4cc(-c5cnc([C@@H]6CCCN6C(=O)[C@@H](NC(=O)OC)C(C)C)[nH]5)ccc4n3)cc2)[nH]1)C(C)C [Example 15, Methyl {(2S)-1-[(2S)-2-{5-[4-(4-hydroxy-6-{2-[(2S)-1-{(2S)-2-[(methoxycarbonyl)amino]-3-methylbutanoyl}pyrrolidin-2-yl]-1H-imidazol-5-yl}quinazolin-2-yl)phenyl]-1H-imidazol-2-yl}pyrrolidin-1-yl]-3-methyl-1-oxobutan-2-yl}carbamate]",194,102
"CCOc1nc(-c2ccc(-c3cnc([C@@H]4CCCN4C(=O)[C@@H](NC(=O)OC)C(C)C)[nH]3)cc2)nc2ccc(-c3cnc([C@@H]4CCCN4C(=O)[C@@H](NC(=O)OC)C(C)C)[nH]3)cc12 [Example 16, Methyl {(2S)-1-[(2S)-2-{5-[4-(4-ethoxy-6-{2-[(2S)-1-{(2S)-2-[(methoxycarbonyl)amino]-3-methylbutanoyl}pyrrolidin-2-yl]-1H-imidazol-5-yl}quinazolin-2-yl)phenyl]-1H-imidazol-2-yl}pyrrolidin-1-yl]-3-methyl-1-oxobutan-2-yl}carbamate]",35.3,5.28
"COC(=O)N[C@H](C(=O)N1CCC[C@H]1c1nc(-c2ccc(-c3nc4ccc(-c5c[nH]c([C@@H]6CCCN6C(=O)[C@@H](NC(=O)OC)C(C)C)n5)cc4nc3OC)cc2)c[nH]1)C(C)C [Example 17, Methyl {(2S)-1-[(2S)-2-{4-[4-(3-methoxy-6-{2-[(2S)-1-{(2S)-2-[(methoxycarbonyl)amino]-3-methylbutanoyl}pyrrolidin-2-yl]-1H-imidazol-4-yl}quinoxalin-2-yl)phenyl]-1H-imidazol-2-yl}pyrrolidin-1-yl]-3-methyl-1-oxobutan-2-yl}carbamate]",560,22.3
"COC(=O)N[C@H](C(=O)N1CCC[C@H]1c1nc(-c2ccc(-c3nc4ccc(-c5c[nH]c([C@@H]6CCCN6C(=O)[C@@H](NC(=O)OC)C(C)C)n5)cc4nc3O)cc2)c[nH]1)C(C)C [Example 18, Methyl {(2S)-1-[(2S)-2-{4-[4-(3-hydroxy-6-{2-[(2S)-1-{(2S)-2-[(methoxycarbonyl)amino]-3-methylbutanoyl}pyrrolidin-2-yl]-1H-imidazol-4-yl}quinoxalin-2-yl)phenyl]-1H-imidazol-2-yl}pyrrolidin-1-yl]-3-methyl-1-oxobutan-2-yl}carbamate]",536,35.8
"COC(=O)N[C@H](C(=O)N1CCC[C@H]1c1nc(-c2ccc(-c3cnc4cc(-c5cnc([C@@H]6CCCN6C(=O)[C@@H](NC(=O)OC)C(C)C)[nH]5)cnc4c3)cc2)c[nH]1)C(C)C [Example 19, Methyl {(2S)-1-[(2S)-2-{5-[7-(4-{2-[(2S)-1-{(2S)-2-[(methoxycarbonyl)amino]-3-methylbutanoyl}pyrrolidin-2-yl]-1H-imidazol-4-yl}phenyl)-1,5-naphthyridin-3-yl]-1H-imidazol-2-yl}pyrrolidin-1-yl]-3-methyl-1-oxobutan-2-yl}carbamate]",468,38.3

# — US20110112100A1, “Hepatitis C Virus Inhibitors” (priority 2009, published 2011)
